Reference: patent US20090239827A1, “COMPOUNDS HAVING LIPID LOWERING PROPERTIES” (priority 2005, published 2009)
“And” between values parts separate entries of the source, which are not always exact repeats. Equal values may be shown once.

How the values were obtained:
[1] = tested on: APOE deficient mice; assay: Example 2: aortic atheromatous lesion area by Oil red O staining in APOE deficient mice; type: in vivo, mouse; details: end of the 24 week treatment period
Experimental: (§1) This example evaluated the effects of a tocopheryl phosphate mixture (TPm) (mono-tocopheryl phosphate and di-tocopheryl phosphate) on the development of atherosclerotic lesions in male APOE deficient mice.
(§2) Twenty-eight mice were divided into 4 groups: 2 control groups, a tocopherol acetate (TA) group (150 mg TA/kg feed) and a TPm group (200 mg TPm/kg feed containing 7% fat).
‘Induction phase’—The induction phase consisted of the first 16 weeks of the treatment period. During this period the animals were fed a mouse pellet diet low in vitamin E (containing less than 20 mg vitamin E per kg food, with a 7% total fat; modified version of the standard AIN93G rodent diet (SF05-040, Specialty feeds, Glen Forrest, Wash. Australia). Control animals were fed the diet alone, while TA-feed contained 150 mg TA/kg feed and TPm-feed contained 200 mg TPm/kg feed. These feeds delivered on average doses of 21 and 26 mg/kg body weight, respectively. The 26 mg/kg TPm dose was calculated to be the tocopherol equivalence of the TA dose. […]
Of the two control animal groups only one was placed on the SF04-055, HFHC diet, while the other control group was maintained on the SF05-040 mouse pellet diet (only 7% fat) for the entire treatment period 24 week treatment period (C24). […] The 26 mg/kg TPm dose was calculated to be the tocopherol equivalent to the TA dose. […]

[2] = tested on: APOE deficient mice; assay: Example 2: plasma lipid levels in APOE deficient mice, compound in feed, induction and challenge phases; type: in vivo, mouse
Experimental: as §1, §2
‘Induction phase’—The induction phase consisted of the first 16 weeks of the treatment period.
‘Challenge phase’—This phase consisted of the final 8 weeks of the treatment period.
The 4 groups of animals were placed on the diet regimes outlined in the table below:
Of the two control animal groups only one was placed on the SF04-055, HFHC diet, while the other control group was maintained on the SF05-040 mouse pellet diet (only 7% fat) for the entire treatment period 24 week treatment period (C24). […] TA treated mice were fed pellets with 150 mg TA/kg feed and TPm treated mice were fed the pellets with 200 mg TPm/kg feed. […] The 26 mg/kg TPm dose was calculated to be the tocopherol equivalent to the TA dose.

[3] = Challenge phase (HFHC diet), week 24, TA 150 mg/kg feed, TPm 200 mg/kg feed
[4] = Induction phase, week 16, TA 150 mg/kg feed, TPm 200 mg/kg feed

CC(=O)Oc1c(C)c(C)c2c(c1C)CCC(C)(CCC[C@H](C)CCC[C@H](C)CCCC(C)C)O2 (stereo partly drawn) [TA, Tocopherol Acetate]
reduction in aortic lesion area / lesion formation compared to control mice on the same diet regime [1]: 12%
Atheromatous lesion area, % Lesion coverage (mean ± SD) ([1]; HFHC diet final 8 weeks): 9.4% and 9.4 ± 1.1%
LDL-C level (mean ± SD) ([2]; Baseline, week 0): 8.85 ± 1.66 mmol/L
total cholesterol level (mean ± SD) ([2]; Baseline, week 0): 12.75 ± 1.41 mmol/L
triglyceride level (mean ± SD) ([2]; Baseline, week 0): 1.75 ± 0.25 mmol/L
LDL-C level (mean ± SD) [2, 3]: 18.98 ± 2.29 mmol/L
total cholesterol level (mean ± SD) [2, 3]: 47.13 ± 4.44 mmol/L
triglyceride level (mean ± SD) [2, 3]: 2.23 ± 0.29 mmol/L
LDL-C level (mean ± SD) [2, 4]: 6.51 ± 0.71 mmol/L
total cholesterol level (mean ± SD) [2, 4]: 14.47 ± 1.32 mmol/L
triglyceride level (mean ± SD) [2, 4]: 1.30 ± 0.22 mmol/L
reduction in plasma lipid levels ([2]; after the challenge phase (week 24)): no significant reduction
